{
  "source": "paper PMC8333425",
  "about": "“Discovery of a dual Ras and ARF6 inhibitor from a GPCR endocytosis screen” (Nature Communications, 2021)",
  "experiment_in_all_cases": "KINOMEscan kinase binding assay",
  "key": {"[1]": {"target": "T1, 384 kinases from the human genome (Homo sapiens, UniProt Q9UM73)", "T1 construct": "purchased Eurofin/DiscoverX", "T1 sequence (Q9UM73 19-1620)": "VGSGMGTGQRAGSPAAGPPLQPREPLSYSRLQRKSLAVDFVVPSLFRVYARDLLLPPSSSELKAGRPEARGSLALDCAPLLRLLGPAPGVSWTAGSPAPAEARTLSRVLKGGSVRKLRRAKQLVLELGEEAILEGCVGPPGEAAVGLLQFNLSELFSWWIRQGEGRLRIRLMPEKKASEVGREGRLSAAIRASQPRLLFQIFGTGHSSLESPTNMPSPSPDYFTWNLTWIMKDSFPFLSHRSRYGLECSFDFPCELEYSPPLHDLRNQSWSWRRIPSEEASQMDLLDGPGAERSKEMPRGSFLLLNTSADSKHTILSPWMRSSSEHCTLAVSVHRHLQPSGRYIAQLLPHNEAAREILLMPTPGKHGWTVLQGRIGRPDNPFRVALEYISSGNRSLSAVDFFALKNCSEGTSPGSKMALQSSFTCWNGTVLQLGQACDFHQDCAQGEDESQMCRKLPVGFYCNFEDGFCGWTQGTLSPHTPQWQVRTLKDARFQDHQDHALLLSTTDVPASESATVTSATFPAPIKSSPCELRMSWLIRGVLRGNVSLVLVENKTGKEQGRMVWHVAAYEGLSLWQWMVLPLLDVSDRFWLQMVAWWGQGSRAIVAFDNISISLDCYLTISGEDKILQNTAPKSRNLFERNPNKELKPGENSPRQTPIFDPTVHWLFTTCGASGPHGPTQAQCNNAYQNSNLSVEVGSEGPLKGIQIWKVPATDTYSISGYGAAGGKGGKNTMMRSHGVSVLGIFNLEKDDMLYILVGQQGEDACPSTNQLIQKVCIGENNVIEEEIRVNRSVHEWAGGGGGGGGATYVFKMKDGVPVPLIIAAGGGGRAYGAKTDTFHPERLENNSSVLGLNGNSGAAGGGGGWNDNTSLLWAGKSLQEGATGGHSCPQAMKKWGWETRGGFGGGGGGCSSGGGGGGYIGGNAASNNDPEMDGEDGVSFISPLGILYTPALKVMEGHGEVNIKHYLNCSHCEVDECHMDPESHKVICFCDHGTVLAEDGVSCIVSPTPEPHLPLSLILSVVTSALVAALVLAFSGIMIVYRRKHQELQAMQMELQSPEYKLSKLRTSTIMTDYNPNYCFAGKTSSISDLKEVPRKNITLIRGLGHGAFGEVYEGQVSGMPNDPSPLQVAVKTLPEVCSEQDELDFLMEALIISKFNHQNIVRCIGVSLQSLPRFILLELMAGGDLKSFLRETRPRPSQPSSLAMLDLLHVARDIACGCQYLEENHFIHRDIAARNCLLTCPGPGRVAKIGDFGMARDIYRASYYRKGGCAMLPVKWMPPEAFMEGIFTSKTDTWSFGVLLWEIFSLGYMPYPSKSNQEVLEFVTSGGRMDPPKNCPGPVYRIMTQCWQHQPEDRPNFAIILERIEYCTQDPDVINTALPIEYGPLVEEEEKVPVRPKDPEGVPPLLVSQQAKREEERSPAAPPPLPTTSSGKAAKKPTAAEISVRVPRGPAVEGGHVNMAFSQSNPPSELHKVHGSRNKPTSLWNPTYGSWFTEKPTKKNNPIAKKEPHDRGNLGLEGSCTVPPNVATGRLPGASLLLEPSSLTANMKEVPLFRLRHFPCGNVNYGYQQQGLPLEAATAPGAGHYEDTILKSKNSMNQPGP", "conditions": "kinase ALK (Entrez ALK)", "summary_of_the_method": "(§1)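 Competition binding (KINOMEscan) across 384 human kinases with compound at 10 µM. Ligand binding was expressed relative to DMSO (100%) as the average of duplicates from one experiment. S(10) selectivity score was derived.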"}, "[2]": {"target": "T2, 384 kinases from the human genome (Homo sapiens, UniProt Q08345)", "T2 construct": "purchased Eurofin/DiscoverX", "conditions": "kinase DDR1 (Entrez DDR1)", "summary_of_the_method": "as §1"}, "[3]": {"target": "T3, 384 kinases from the human genome (Homo sapiens, UniProt Q8WU08)", "T3 construct": "purchased Eurofin/DiscoverX", "T3 sequence (Q8WU08 whole entry)": "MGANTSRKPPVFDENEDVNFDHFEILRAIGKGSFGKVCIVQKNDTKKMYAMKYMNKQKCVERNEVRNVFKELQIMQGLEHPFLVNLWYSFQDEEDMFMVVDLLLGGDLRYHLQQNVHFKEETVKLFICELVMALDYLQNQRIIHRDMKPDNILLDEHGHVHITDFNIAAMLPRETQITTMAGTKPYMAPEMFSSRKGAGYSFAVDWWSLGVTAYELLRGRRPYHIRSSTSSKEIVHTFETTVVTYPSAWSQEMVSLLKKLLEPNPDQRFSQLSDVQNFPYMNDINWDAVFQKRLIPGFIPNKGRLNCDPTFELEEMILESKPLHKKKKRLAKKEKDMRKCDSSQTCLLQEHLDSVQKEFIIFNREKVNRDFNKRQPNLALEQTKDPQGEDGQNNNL", "conditions": "kinase YANK1 (Entrez STK32A)", "summary_of_the_method": "as §1"}, "[4]": {"target": "T4, 384 kinases from the human genome (Homo sapiens, UniProt P17612)", "T4 construct": "purchased Eurofin/DiscoverX", "conditions": "kinase PKAC-alpha (Entrez PRKACA)", "summary_of_the_method": "as §1"}, "[5]": {"target": "T5, 384 kinases from the human genome (Homo sapiens, UniProt O43283)", "T5 construct": "purchased Eurofin/DiscoverX", "conditions": "kinase LZK (Entrez MAP3K13)", "summary_of_the_method": "as §1"}, "[6]": {"target": "T6, 384 kinases from the human genome (Homo sapiens, UniProt Q8IYT8)", "T6 construct": "purchased Eurofin/DiscoverX", "conditions": "kinase ULK2 (Entrez ULK2)", "summary_of_the_method": "as §1"}, "[7]": {"target": "T7, 384 kinases from the human genome (Homo sapiens, UniProt P16234)", "T7 construct": "purchased Eurofin/DiscoverX", "conditions": "kinase PDGFRA (Entrez PDGFRA)", "summary_of_the_method": "as §1"}, "[8]": {"target": "T8, 384 kinases from the human genome (Homo sapiens, UniProt P11802)", "T8 construct": "purchased Eurofin/DiscoverX", "T8 sequence (P11802 whole entry)": "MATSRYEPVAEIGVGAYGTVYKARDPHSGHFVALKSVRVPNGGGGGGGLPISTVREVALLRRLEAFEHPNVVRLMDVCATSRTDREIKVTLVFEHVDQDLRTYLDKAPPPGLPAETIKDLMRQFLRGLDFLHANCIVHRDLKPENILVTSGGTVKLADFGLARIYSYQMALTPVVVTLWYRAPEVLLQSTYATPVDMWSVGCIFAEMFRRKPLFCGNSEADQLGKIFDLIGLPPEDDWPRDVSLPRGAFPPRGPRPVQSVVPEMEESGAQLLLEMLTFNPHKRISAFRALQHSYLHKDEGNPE", "summary_of_the_method": "as §1"}, "[9]": {"target": "T9, 384 kinases from the human genome (Homo sapiens, UniProt Q15831)", "T9 construct": "purchased Eurofin/DiscoverX", "T9 sequence (Q15831 whole entry)": "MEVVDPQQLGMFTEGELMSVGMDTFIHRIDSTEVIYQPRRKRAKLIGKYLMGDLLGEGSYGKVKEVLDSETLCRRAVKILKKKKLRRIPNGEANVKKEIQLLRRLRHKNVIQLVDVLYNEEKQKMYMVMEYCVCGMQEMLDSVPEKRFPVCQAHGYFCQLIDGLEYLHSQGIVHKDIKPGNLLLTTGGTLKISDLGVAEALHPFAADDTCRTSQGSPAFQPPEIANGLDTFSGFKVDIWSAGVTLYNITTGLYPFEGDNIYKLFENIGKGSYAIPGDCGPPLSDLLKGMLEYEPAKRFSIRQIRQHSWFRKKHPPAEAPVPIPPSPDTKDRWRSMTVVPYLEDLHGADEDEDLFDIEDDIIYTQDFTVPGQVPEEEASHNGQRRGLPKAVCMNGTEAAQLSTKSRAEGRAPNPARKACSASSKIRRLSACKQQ", "conditions": "kinase LKB1 (Entrez STK11)", "summary_of_the_method": "as §1"}, "[10]": {"target": "T10, 384 kinases from the human genome (Homo sapiens, UniProt Q9BZL6)", "T10 construct": "purchased Eurofin/DiscoverX", "conditions": "kinase PRKD2 (Entrez PRKD2)", "summary_of_the_method": "as §1"}, "[11]": {"target": "T11, 384 kinases from the human genome (Homo sapiens, UniProt P08069)", "T11 construct": "purchased Eurofin/DiscoverX", "conditions": "kinase IGF1R (Entrez IGF1R)", "summary_of_the_method": "as §1"}, "[12]": {"target": "T12, 384 kinases from the human genome (Homo sapiens, UniProt Q9Y3S1)", "T12 construct": "purchased Eurofin/DiscoverX", "conditions": "kinase WNK2 (Entrez WNK2)", "summary_of_the_method": "as §1"}, "[13]": {"target": "T13, 384 kinases from the human genome (Homo sapiens, UniProt Q02763)", "T13 construct": "purchased Eurofin/DiscoverX", "T13 sequence (Q02763 23-1124)": "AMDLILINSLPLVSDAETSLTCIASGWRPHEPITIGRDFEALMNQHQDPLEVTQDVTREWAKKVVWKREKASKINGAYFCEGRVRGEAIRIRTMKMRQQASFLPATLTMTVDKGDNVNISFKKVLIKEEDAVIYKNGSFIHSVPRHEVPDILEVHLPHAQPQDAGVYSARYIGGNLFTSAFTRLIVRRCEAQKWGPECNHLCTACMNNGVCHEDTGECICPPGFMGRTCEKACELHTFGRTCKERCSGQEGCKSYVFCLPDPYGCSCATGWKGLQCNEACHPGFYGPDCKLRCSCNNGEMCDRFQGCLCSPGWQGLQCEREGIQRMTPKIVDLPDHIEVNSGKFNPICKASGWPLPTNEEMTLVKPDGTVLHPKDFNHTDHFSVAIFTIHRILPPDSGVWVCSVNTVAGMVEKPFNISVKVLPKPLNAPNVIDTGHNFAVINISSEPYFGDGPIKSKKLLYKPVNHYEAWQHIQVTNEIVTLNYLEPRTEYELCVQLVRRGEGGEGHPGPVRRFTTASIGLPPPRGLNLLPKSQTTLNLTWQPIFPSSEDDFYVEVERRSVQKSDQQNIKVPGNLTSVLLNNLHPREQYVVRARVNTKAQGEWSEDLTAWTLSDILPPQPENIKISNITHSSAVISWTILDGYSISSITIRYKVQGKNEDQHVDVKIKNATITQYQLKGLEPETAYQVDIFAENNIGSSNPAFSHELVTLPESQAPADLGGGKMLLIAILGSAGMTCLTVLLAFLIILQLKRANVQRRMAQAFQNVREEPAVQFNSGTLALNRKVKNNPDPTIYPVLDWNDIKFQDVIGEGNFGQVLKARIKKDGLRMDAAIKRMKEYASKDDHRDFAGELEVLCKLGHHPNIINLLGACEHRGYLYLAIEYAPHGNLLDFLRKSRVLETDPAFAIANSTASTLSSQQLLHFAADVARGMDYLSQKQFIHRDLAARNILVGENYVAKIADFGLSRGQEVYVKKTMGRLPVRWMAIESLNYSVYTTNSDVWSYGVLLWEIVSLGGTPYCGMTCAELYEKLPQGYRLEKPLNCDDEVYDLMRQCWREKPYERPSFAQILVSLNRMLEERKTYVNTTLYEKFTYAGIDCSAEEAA", "conditions": "kinase TIE2 (Entrez TEK)", "summary_of_the_method": "as §1"}, "[14]": {"target": "T14, 384 kinases from the human genome (Homo sapiens, UniProt P23443)", "T14 construct": "purchased Eurofin/DiscoverX", "conditions": "kinase S6K1 (Entrez RPS6KB1)", "summary_of_the_method": "as §1"}, "[15]": {"target": "T15, 384 kinases from the human genome (Homo sapiens, UniProt Q15759)", "T15 construct": "purchased Eurofin/DiscoverX", "conditions": "kinase p38-beta (Entrez MAPK11)", "summary_of_the_method": "as §1"}, "[16]": {"target": "T16, 384 kinases from the human genome (Homo sapiens, UniProt Q9UKI8)", "T16 construct": "purchased Eurofin/DiscoverX", "conditions": "kinase TLK1 (Entrez TLK1)", "summary_of_the_method": "as §1"}, "[17]": {"target": "T17, 384 kinases from the human genome (Homo sapiens, UniProt Q16539)", "T17 construct": "purchased Eurofin/DiscoverX", "conditions": "kinase p38-alpha (Entrez MAPK14)", "summary_of_the_method": "as §1"}, "[18]": {"target": "T18, 384 kinases from the human genome (Homo sapiens, UniProt Q2M2I8)", "T18 construct": "purchased Eurofin/DiscoverX", "T18 sequence (Q2M2I8 whole entry)": "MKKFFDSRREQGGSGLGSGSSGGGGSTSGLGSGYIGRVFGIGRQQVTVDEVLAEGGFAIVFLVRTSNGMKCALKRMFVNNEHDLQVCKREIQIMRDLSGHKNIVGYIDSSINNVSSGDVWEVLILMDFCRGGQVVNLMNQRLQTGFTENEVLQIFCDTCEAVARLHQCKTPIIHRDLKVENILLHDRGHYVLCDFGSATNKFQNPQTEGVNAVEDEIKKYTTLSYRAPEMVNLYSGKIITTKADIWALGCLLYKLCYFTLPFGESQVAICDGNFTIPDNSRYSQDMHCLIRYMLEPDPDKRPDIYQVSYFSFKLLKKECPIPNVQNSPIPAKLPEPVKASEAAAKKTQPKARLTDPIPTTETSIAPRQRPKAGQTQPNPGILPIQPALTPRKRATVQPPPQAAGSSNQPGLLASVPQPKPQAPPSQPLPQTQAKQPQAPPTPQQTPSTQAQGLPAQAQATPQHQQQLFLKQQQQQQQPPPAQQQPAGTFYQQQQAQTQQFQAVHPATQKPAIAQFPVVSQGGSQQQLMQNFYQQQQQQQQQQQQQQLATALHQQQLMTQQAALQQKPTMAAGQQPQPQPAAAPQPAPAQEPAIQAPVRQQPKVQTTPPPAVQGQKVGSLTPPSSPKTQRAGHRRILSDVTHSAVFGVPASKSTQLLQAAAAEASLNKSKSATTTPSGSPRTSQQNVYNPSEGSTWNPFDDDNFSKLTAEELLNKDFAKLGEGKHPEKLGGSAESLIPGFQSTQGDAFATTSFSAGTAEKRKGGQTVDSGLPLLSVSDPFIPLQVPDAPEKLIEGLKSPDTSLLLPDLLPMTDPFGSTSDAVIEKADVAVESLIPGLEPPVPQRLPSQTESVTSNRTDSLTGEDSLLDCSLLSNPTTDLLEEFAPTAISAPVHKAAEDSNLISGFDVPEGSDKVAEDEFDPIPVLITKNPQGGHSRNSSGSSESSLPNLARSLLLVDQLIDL", "summary_of_the_method": "as §1"}, "[19]": {"target": "T19, 384 kinases from the human genome (Homo sapiens, UniProt P49336)", "T19 construct": "purchased Eurofin/DiscoverX", "conditions": "kinase CDK8 (Entrez CDK8)", "summary_of_the_method": "as §1"}, "[20]": {"system": "384 kinases from the human genome", "conditions": "10 µM of 21", "summary_of_the_method": "as §1"}, "[21]": {"target": "T20, 384 kinases from the human genome (Homo sapiens, UniProt Q02750)", "T20 construct": "purchased Eurofin/DiscoverX", "conditions": "kinase MEK1 (Entrez MAP2K1)", "summary_of_the_method": "as §1"}, "[22]": {"target": "T21, 384 kinases from the human genome (Homo sapiens, UniProt P49841)", "T21 construct": "purchased Eurofin/DiscoverX", "conditions": "kinase GSK3B (Entrez GSK3B)", "summary_of_the_method": "as §1"}, "[23]": {"target": "T22, 384 kinases from the human genome (Homo sapiens, UniProt O14733)", "T22 construct": "purchased Eurofin/DiscoverX", "conditions": "kinase MKK7 (Entrez MAP2K7)", "summary_of_the_method": "as §1"}, "[24]": {"target": "T23, 384 kinases from the human genome (Homo sapiens, UniProt P04629)", "T23 construct": "purchased Eurofin/DiscoverX", "conditions": "kinase TRKA (Entrez NTRK1)", "summary_of_the_method": "as §1"}, "[25]": {"target": "T24, 384 kinases from the human genome (Homo sapiens, UniProt Q8TDC3)", "T24 construct": "purchased Eurofin/DiscoverX", "conditions": "kinase BRSK1 (Entrez BRSK1)", "summary_of_the_method": "as §1"}, "[26]": {"target": "T25, 384 kinases from the human genome (Homo sapiens, UniProt P49137)", "T25 construct": "purchased Eurofin/DiscoverX", "conditions": "kinase MAPKAPK2 (Entrez MAPKAPK2)", "summary_of_the_method": "as §1"}},
  "data": [
    {"smiles": "CC(C)C(=O)N1CCN(c2ccc(NC(=O)c3cc4ccccc4o3)cc2Cl)CC1", "note": "[Compound 21]", "values": [
      {"measurement": "Percent Control", "setting": "[1]", "result": 89, "unit": "%"},
      {"measurement": "Percent Control", "setting": "[2]", "result": 90, "unit": "%"},
      {"measurement": "Percent Control", "setting": "[3]", "result": 81, "unit": "%"},
      {"measurement": "Percent Control", "setting": "[4]", "result": 97, "unit": "%"},
      {"measurement": "Percent Control", "setting": "[5]", "result": 100, "unit": "%"},
      {"measurement": "Percent Control", "setting": "[6]", "result": 95, "unit": "%"},
      {"measurement": "Percent Control", "setting": "[7]", "result": 72, "unit": "%"},
      {"measurement": "Percent Control", "setting": "[8]; kinase CDK4 (Entrez CDK4)", "result": 97, "unit": "%"},
      {"measurement": "Percent Control", "setting": "[8]; kinase CDK4-cyclinD1 (Entrez CDK4)", "result": 86, "unit": "%"},
      {"measurement": "Percent Control", "setting": "[8]; kinase CDK4-cyclinD3 (Entrez CDK4)", "result": 96, "unit": "%"},
      {"measurement": "Percent Control", "setting": "[9]", "result": 67, "unit": "%"},
      {"measurement": "Percent Control", "setting": "[10]", "result": 100, "unit": "%"},
      {"measurement": "Percent Control", "setting": "[11]", "result": 76, "unit": "%"},
      {"measurement": "Percent Control", "setting": "[12]", "result": 100, "unit": "%"},
      {"measurement": "Percent Control", "setting": "[13]", "result": 88, "unit": "%"},
      {"measurement": "Percent Control", "setting": "[14]", "result": 94, "unit": "%"},
      {"measurement": "Percent Control", "setting": "[15]", "result": 80, "unit": "%"},
      {"measurement": "Percent Control", "setting": "[16]", "result": 55, "unit": "%"},
      {"measurement": "Percent Control", "setting": "[17]", "result": 100, "unit": "%"},
      {"measurement": "binding to AAK1", "setting": "[18]; 10 µM of 21", "result": "failed to bind"},
      {"measurement": "Percent Control", "setting": "[18]; kinase AAK1 (Entrez AAK1)", "result": 100, "unit": "%"},
      {"measurement": "Percent Control", "setting": "[19]", "result": 100, "unit": "%"},
      {"measurement": "binding to ERK subtypes", "setting": "[20]", "result": "failed to bind"},
      {"measurement": "binding to MEK subtypes", "setting": "[20]", "result": "failed to bind"},
      {"measurement": "binding to PI3K subtypes", "setting": "[20]", "result": "failed to bind"},
      {"measurement": "binding to different Akt subtypes", "setting": "[20]", "result": "failed to bind"},
      {"measurement": "Percent Control", "setting": "[21]", "result": 76, "unit": "%"},
      {"measurement": "Percent Control", "setting": "[22]", "result": 99, "unit": "%"},
      {"measurement": "Percent Control", "setting": "[23]", "result": 93, "unit": "%"},
      {"measurement": "Percent Control", "setting": "[24]", "result": 14, "unit": "%"},
      {"measurement": "Percent Control", "setting": "[25]", "result": 99, "unit": "%"},
      {"measurement": "Percent Control", "setting": "[26]", "result": 100, "unit": "%"}
    ]}
  ]
}
